# According to patent US10577363B2, “Substituted piperidine compounds” (EPIZYME, INC., priority 2014, dated 2020):
# Molecular target: T1, SMYD3 (Homo sapiens (Human), UniProt Q9H7B4)
# Test: SMYD3 cell assay (Trimethyl-MEKK2 In-Cell Western in 293T/17 cells)
# Assay type: cell-based
# Details: 293T/17 cells; read-out: SMYD3 Cell IC50 (μM)*
# Source text: Trimethyl-MEKK2-in-Cell Western Assay
# MEM/Glutamax medium, Optimem Reduced Serum medium, penicillin-streptomycin, 0.05% trypsin and 1×D-PBS were purchased from Life Technologies, Grand Island, N.Y., USA. PBS-10× was purchased from Ambion, Life Technologies, Grand Island, N.Y., USA. PBS with Tween 20 (PBST (10×)) was purchased from KPL, Gaithersburg, Md., USA. Tet System FBS-approved FBS US Source was purchased from Clontech, Mountain View, Calif., USA. Odyssey blocking buffer, 800CW goat anti-rabbit IgG (H+L) antibody, 680CW Goat anti-mouse IgG (H+L) and Licor Odyssey infrared scanner were purchased from Licor Biosciences, Lincoln, Nebr., USA. Tri-methyl-Lysine [A260]-MEKK2 antibody, MEKK2 and SMYD3 plasmids were made at Epizyme. Anti-flag monoclonal mouse antibody was purchased from Sigma, St. Louis, Mo., USA. Methanol was purchased from VWR, Franklin, Mass., USA. 10% Tween 20 was purchased from KPL, Inc., Gaithersburg, Md., USA. Fugene was purchased from Promega, Madison, Wis., USA. The Biotek ELx405 was purchased from BioTek, Winooski, Vt., USA. The multidrop combi was purchased from Thermo Scientific, Waltham, Mass., USA.
# Cell Treatment, in Cell Western (ICW) for Detection of Trimethyl-Lysine-MEKK2 and MEKK2.
# Plasmids were prepared for delivery to cells by first mixing 1350 μL Opti-MEM with Fugene (81 μL) in a sterile Eppendorf and incubated for five minutes at room temperature (RT). […] Entire volume of Opti-MEM/Fugene mixture was then added to a microfuge tube containing DNA plasmid, mixed and then incubated×15 minutes at RT. […] Medium was then removed, and cells were washed once with PBS in the flask. Trypsin 0.05% (3 mL) was added and cells incubated for three minutes. Room temperature MEM+10% Tet system FBS was added and cells were mixed gently, and counted using the Vi-cell. Cells were seeded at 100,000 cells/mL in 50 μL MEM/10% Tet FBS/Pen/Strep to a 384 well black/clear poly-D-lysine coated plate containing test agent diluted in DMSO. The final top concentration of test compound was 40 μM. […] Plates were incubated×30 minutes at RT in low-airflow area, followed by incubation at 37° C. under 5% CO2 for 24 hours. Medium was aspirated from all wells of assay plates prior to fixation and permeabilization with ice cold (−20° C.) methanol (90 μL/well) for ten minutes. Plates were rinsed with PBS three times on BioTek ELx405. PBS was removed with a final aspiration, and Odyssey blocking buffer (50 μL/well) was added to each well and incubated for one hour at RT. Primary antibody solution was prepared (anti-trimethyl-MEKK2 at 1:600 dilution plus mouse anti-flag antibody at 1:10,000 dilution in diluent (Odyssey Blocking buffer+0.1% Tween 20)) and 20 μL per well was dispensed using the Multidrop Combi. Assay plates were then sealed with foil, and incubated overnight at 4° C. Plates were washed five times with PBS-Tween (1×) on Biotek ELx405 and blotted on paper towel to remove excess reagent.
# First, the ratio for each well was determined by:
# Each plate included fourteen control wells of DMSO only treatment (Minimum Inhibition) as well as fourteen control wells for maximum inhibition (Background). The average of the ratio values for each control type was calculated and used to determine the percent inhibition for each test well in the plate. Reference compound was serially diluted two-fold in DMSO for a total of nine test concentrations, beginning at 40 μM.
# Percent inhibition was calculated (below).
# Non-linear regression curves were generated to calculate the IC50 and dose-response relationship using triplicate wells per concentration of compound.
# T1 sequence (Q9H7B4 whole entry): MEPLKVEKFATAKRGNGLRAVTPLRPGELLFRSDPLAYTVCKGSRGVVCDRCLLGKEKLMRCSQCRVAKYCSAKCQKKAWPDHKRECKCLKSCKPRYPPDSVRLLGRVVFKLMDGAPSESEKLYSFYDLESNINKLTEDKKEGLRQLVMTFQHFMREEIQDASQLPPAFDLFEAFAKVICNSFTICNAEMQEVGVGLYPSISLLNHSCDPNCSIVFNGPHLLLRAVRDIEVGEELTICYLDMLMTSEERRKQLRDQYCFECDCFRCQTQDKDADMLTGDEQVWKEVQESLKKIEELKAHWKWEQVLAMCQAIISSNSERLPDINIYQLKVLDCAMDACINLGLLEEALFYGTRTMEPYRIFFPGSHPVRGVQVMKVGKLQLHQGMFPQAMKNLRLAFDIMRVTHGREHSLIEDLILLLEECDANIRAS
row,Compound,IC50
1,"C[C@@H]1C[C@H](NC(=O)c2cc(C3CC3)on2)CCN1C(=O)c1ccc(C2(N)CCC2)cc1 [compound 479, N-((2R,4R)-1-(4-(1-aminocyclobutyl)benzoyl)-2-methylpiperidin-4-yl)-5-cyclopropylisoxazole-3-carboxamide]",2.03 µM

# Molecular target: T1, SMYD3
# Test: SMYD3 biochemical assay (SPA, 3H-SAM methylation of MEKK2 protein substrate)
# Details: Table 1A; IC50 values are an average of n = 1 to n = 50; read-out: SMYD3 Biochem IC50
# How it was run: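 Full-length native human SMYD3 (E. coli-expressed, tags removed) preincubated with compounds 30 min at room temperature, then reaction started with 3H-SAM and GST-tagged MEKK2 protein in 25 mM Tris-Cl pH 8.0, 1 mM TCEP, 0.005% BSG, 0.005% Tween 20. Quenched with unlabelled SAM (100 uM final); 3H-MEKK2 counted by SPA.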
row,Compound,IC50
1,"CCN(CC)S(=O)(=O)N1CC[C@H](NC(=O)c2cc(C3CC3)on2)C[C@@H]1C [compound 518, 5-cyclopropyl-N-((2S,4S)-1-(N,N-diethylsulfamoyl)-2-methylpiperidin-4-yl)isoxazole-3-carboxamide]",3720 nM
2,"C[C@H]1C[C@@H](NC(=O)c2cc(C3CC3)on2)CCN1S(=O)(=O)c1cccc(C(F)(F)F)n1 [compound 519, 5-cyclopropyl-N-((2S,4S)-2-methyl-1-((6-(trifluoromethyl)pyridin-2-yl)sulfonyl)piperidin-4-yl)isoxazole-3-carboxamide]",204 nM
3,"C[C@H]1C[C@@H](NC(=O)c2cc(C3CC3)on2)CCN1S(=O)(=O)c1cccc(NCCCN)n1 [compound 520, N-((2S,4S)-1-((6-((3-aminopropyl)amino)pyridin-2-yl)sulfonyl)-2-methylpiperidin-4-yl)-5-cyclopropylisoxazole-3-carboxamide]",50.1 nM
4,"C[C@H]1C[C@@H](NC(=O)c2cc(C3CC3)on2)CCN1S(=O)(=O)c1cccc(N(C)CCN2CCOCC2)n1 [compound 521, 5-cyclopropyl-N-((2S,4S)-2-methyl-1-((6-(methyl(2-morpholinoethyl)amino)pyridin-2-yl)sulfonyl)piperidin-4-yl)isoxazole-3-carboxamide]",4500 nM
5,"C[C@H]1C[C@@H](NC(=O)c2cc(C3CC3)on2)CCN1S(=O)(=O)c1ccc(N)nc1 [compound 522, N-((2S,4S)-1-((6-aminopyridin-3-yl)sulfonyl)-2-methylpiperidin-4-yl)-5-cyclopropylisoxazole-3-carboxamide]",407 nM
6,"C[C@H]1C[C@@H](NC(=O)c2cc(C3CC3)on2)CCN1S(=O)(=O)c1cccnc1N [compound 523, N-((2S,4S)-1-((2-aminopyridin-3-yl)sulfonyl)-2-methylpiperidin-4-yl)-5-cyclopropylisoxazole-3-carboxamide]",1080 nM

# Same assay, conditions: Table 2A; read-out: SMYD3 Biochem IC50
row,Compound,IC50
1,"CNCCCCS(=O)(=O)N1CC[C@H](NC(=O)c2cc(C3CC3)on2)C[C@@H]1C [compound 561, 5-cyclopropyl-N-((2S,4S)-2-methyl-1-((4-(methylamino)butyl)sulfonyl)piperidin-4-yl)isoxazole-3-carboxamide]",5.1 nM

# Same assay, conditions: average of n = 1 to n = 50; read-out: SMYD3 Biochem IC50
row,Compound,IC50
1,"COCCN(C)CCCS(=O)(=O)N1[C@@H]2CC[C@H]1C[C@@H](NC(=O)c1cc(C3CC3)on1)C2 [compound 665, 5-cyclopropyl-N-((1R,3r,5S)-8-((3-((2-methoxyethyl)(methyl)amino)propyl)sulfonyl)-8-azabicyclo[3.2.1]octan-3-yl)isoxazole-3-carboxamide]",86.8 nM
2,"C[C@@H]1C[C@@H](NC(=O)c2cc(C3CC3)on2)CCN1S(=O)(=O)C(CCN)c1ccccc1 (stereo partly drawn) [compound 704, N-((2R,4S)-1-((3-amino-1-phenylpropyl)sulfonyl)-2-methylpiperidin-4-yl)-5-cyclopropylisoxazole-3-carboxamide]",218 nM
3,"Nc1cccc(S(=O)(=O)N2[C@@H]3CCC[C@H]2C[C@H](NC(=O)c2cc(C4CC4)on2)C3)n1 [compound 740, N-((1R,3s,5S)-9-((6-aminopyridin-2-yl)sulfonyl)-9-azabicyclo[3.3.1]nonan-3-yl)-5-cyclopropylisoxazole-3-carboxamide]",498 nM
4,"Cc1ccnc(S(=O)(=O)N2CC[C@H](NC(=O)c3cc(C4CC4)on3)C[C@@H]2C)c1 [compound 741, 5-cyclopropyl-N-((2S,4S)-2-methyl-1-((4-methylpyridin-2-yl)sulfonyl)piperidin-4-yl)isoxazole-3-carboxamide]",512 nM
5,"CC1(C(=O)N2CCC(NC(=O)c3cc(C4CC4)on3)CC2)CCNCC1 [compound 760, 5-cyclopropyl-N-(1-(4-methylpiperidine-4-carbonyl)piperidin-4-yl)isoxazole-3-carboxamide]",742 nM
6,"Cc1ccc(S(=O)(=O)N2C3CCC[C@@H]2C[C@@H](NC(=O)c2cc(C4CC4)on2)C3)nc1 [compound 763, 5-cyclopropyl-N-((1R,3S)-9-((5-methylpyridin-2-yl)sulfonyl)-9-azabicyclo[3.3.1]nonan-3-yl)isoxazole-3-carboxamide]",770 nM

# Same assay, conditions: read-out: SMYD3 Biochem IC50
row,Compound,IC50
1,"CC(C)CN(C)c1ccc(S(=O)(=O)N2C3CCCC2CC(NC(=O)c2cc(C4CC4)on2)C3)cn1 (stereo not shown) [compound 514, 5-cyclopropyl-N-(9-((6-(isobutyl(methyl)amino)pyridin-3-yl)sulfonyl)-9-azabicyclo[3.3.1]nonan-3-yl)isoxazole-3-carboxamide]",> 10000 nM
2,"NCCNc1ccc(S(=O)(=O)N2C3CCCC2CC(NC(=O)c2cc(C4CC4)on2)C3)cn1 (stereo not shown) [compound 515, N-(9-((6-((2-aminoethyl)amino)pyridin-3-yl)sulfonyl)-9-azabicyclo[3.3.1]nonan-3-yl)-5-cyclopropylisoxazole-3-carboxamide]",17.6 nM
3,"NCCCNc1ccc(S(=O)(=O)N2C3CCCC2CC(NC(=O)c2cc(C4CC4)on2)C3)cn1 (stereo not shown) [compound 516, N-(9-((6-((3-aminopropyl)amino)pyridin-3-yl)sulfonyl)-9-azabicyclo[3.3.1]nonan-3-yl)-5-cyclopropylisoxazole-3-carboxamide]",74.2 nM
4,"CN(CCCN)c1ccc(S(=O)(=O)N2C3CCCC2CC(NC(=O)c2cc(C4CC4)on2)C3)cn1 (stereo not shown) [compound 517, N-(9-((6-((3-aminopropyl)(methyl)amino)pyridin-3-yl)sulfonyl)-9-azabicyclo[3.3.1]nonan-3-yl)-5-cyclopropylisoxazole-3-carboxamide]",80.3 nM
5,"CNc1ncccc1S(=O)(=O)N1C2CCCC1CC(NC(=O)c1cc(C3CC3)on1)C2 (stereo not shown) [compound 524, 5-cyclopropyl-N-(9-((2-(methylamino)pyridin-3-yl)sulfonyl)-9-azabicyclo[3.3.1]nonan-3-yl)isoxazole-3-carboxamide]",1850 nM

# Same assay, conditions: read-out: SMYD3 Biochem IC50*
row,Compound,IC50
1,"C[C@H]1C[C@@H](NC(=O)c2cc(C3CC3)on2)CCN1S(=O)(=O)C[C@H]1CCCNC1 [compound 854, 5-cyclopropyl-N-((2S,4S)-2-methyl-1-((((S)-piperidin-3-yl)methyl)sulfonyl)piperidin-4-yl)isoxazole-3-carboxamide]",6.92 nM
2,"C[C@H]1C[C@@H](NC(=O)c2cc(C3CC3)on2)CCN1S(=O)(=O)C[C@@H]1CCCNC1 [compound 875, 5-cyclopropyl-N-((2S,4S)-2-methyl-1-((((R)-piperidin-3-yl)methyl)sulfonyl)piperidin-4-yl)isoxazole-3-carboxamide]",10 nM
3,"O=C(N[C@H]1C[C@H]2CC[C@@H](C1)N2S(=O)(=O)N1CCNCC1Cc1ccccc1)c1cc(C2CC2)on1 (stereo partly drawn) [compound 940, N-((1R,3r,5S)-8-((2-benzylpiperazin-1-yl)sulfonyl)-8-azabicyclo[3.2.1]octan-3-yl)-5-cyclopropylisoxazole-3-carboxamide]",47.5 nM
